# US20250333405A1, “ANTAGONISTS OF GPR39 PROTEIN” (VASOCARDEA, INC., priority 2024, published 2025)
# Structures can show the parent of a compound that is named as a salt.
# Target: T1, human GPR39 receptor (Homo sapiens, UniProt O43194)
# T1 construct: PC3 Cells, Expressing the Endogenous Human GPR39 Receptor; endogenous in cells; host or cells: PC3 (human prostate adenocarcinoma) cells
# T1 sequence (O43194 1-453): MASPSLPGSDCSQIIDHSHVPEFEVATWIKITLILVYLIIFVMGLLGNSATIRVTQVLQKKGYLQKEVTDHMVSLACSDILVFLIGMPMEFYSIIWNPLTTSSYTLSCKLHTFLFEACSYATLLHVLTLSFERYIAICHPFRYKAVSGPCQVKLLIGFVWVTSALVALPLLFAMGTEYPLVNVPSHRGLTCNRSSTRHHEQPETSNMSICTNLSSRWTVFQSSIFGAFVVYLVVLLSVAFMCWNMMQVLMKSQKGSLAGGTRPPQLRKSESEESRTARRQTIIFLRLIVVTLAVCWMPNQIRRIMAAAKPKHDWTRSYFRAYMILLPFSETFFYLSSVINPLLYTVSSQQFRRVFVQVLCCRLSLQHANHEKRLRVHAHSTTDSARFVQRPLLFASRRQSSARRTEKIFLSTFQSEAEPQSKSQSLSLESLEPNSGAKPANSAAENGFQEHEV
# Experiment: Intracellular calcium response (FLIPR, Calcium-6) in PC3 cells, antagonism of agonist C3 (TC-G 1008) at EC90
# Assay type: cell-based
# Settings: functional pKi (-Log10Ki) by modified Cheng-Prusoff from IC50; PC3 cells endogenously expressing human GPR39; 30 μM ZnCl2; agonist C3 (TC-G 1008) at EC90 1.5 μM; read-out: fpKi activity
# Protocol: Measurement of Intracellular Calcium Response in PC3 Cells, Expressing the Endogenous Human GPR39 Receptor
# Human prostate adenocarcinoma (PC3) cells endogenously expressing human GPR39 receptor were seeded into black walls clear-base 384-well plates at a density of 7,500 cells per well in DMEM (Low Glucose) supplemented with 10% heat-inactivated foetal bovine serum and 1% of Pen/Strep and grown overnight at 37° C., 5% CO2. After washing with assay buffer (20 mM HEPES, 137 mM NaCl, 5.4 mM KCl, 10 mM glucose, 0.8 mM MgSO4, 1.3 mM CaCl2), 0.3 mM Na2HPO4, 0.4 mM KH2PO4 4.2 mM NaHCO3, pH 7.4), cells were incubated with Calcium-6 probe (Molecular Devices) at 37° C. for 2 h and then equilibrated at RT for 30 minutes on metal block. The fluorescence was measured in real time by Fluorometric Imaging Plate Reader (FLIPR TETRA, Molecular Devices) (excitation wavelength at 470-495 nm, emission wavelength at 515-575 nm). Compounds of invention were serially diluted in neat DMSO at 1000 fold concentrations and plated into 384-well plates and then 200-fold diluted in assay buffer containing 150 μM ZnCl2 (30 μM final concentration) and 1.1% DMSO (0.32% final concentration). A dual addition FLIPR protocol was used which included a first addition of compounds 200-fold diluted in Assay Buffer containing 150 μM ZnCl2 and 1.1% DMSO and then after 10 minutes a second addition of a submaximal concentration of the hGPR39 receptor agonist, C3 (Tocris, TC-G 1008) at EC90 (concentration producing 90% of the maximal response) value of 1.5 μM. Fluorescence was monitored throughout the run assay. The peak of Ca2+ stimulation (baseline subtracted) was expressed as percentage of the maximal inhibition of the EC90 C3 response and was plotted versus the concentration of test compound. Curve fitting and IC50 estimations are carried out using a four-parameter logistic model using XLfit Software. […] An fpKi less than 5.2 is reported as “+/−”. An fpKi ranging from 5.2 to 5.9 is reported as “+”. An fpKi from 6.0 to 6.5 is reported as “++”. An fpKi from 6.6 to 7.2 is reported as “+++”. An fpKi equal to or greater than 7.3 is reported as “++++”.
row,Structure (SMILES),Ki
1,"C[C@@H]1CN(C(=O)c2ccc(NC(=O)C3CC3)cc2N2CCCC2)C[C@@H](C)O1 (racemic) [Example 4, N-[4-[(trans)-2,6-dimethylmorpholine-4-carbonyl]-3-pyrrolidin-1-ylphenyl]cyclopropanecarboxamide]",1.26 to 6.31 µM
2,"Cc1cc(Nc2ccc(C(=O)N3CCN(C)CC3c3ccccc3)c(N3CCCC3)c2)on1 (racemic) [Example 18, [4-[(3-methyl-1,2-oxazol-5-yl)amino]-2-pyrrolidin-1-ylphenyl]-(4-methyl-2-phenylpiperazin-1-yl)methanone]",1.26 to 6.31 µM
3,"CC(C)n1ccc(-c2cc(NC(=O)C3CC3)ccc2C(=O)N2CCN(C)CC2c2ccccc2)n1 (racemic) [Example 30, N-[4-(4-methyl-2-phenylpiperazine-1-carbonyl)-3-(1-propan-2-ylpyrazol-3-yl)phenyl]cyclopropanecarboxamide]",0.316 to 1 µM
4,"CN1CCN(C(=O)c2ccc(NC(=O)C3CC3)cc2-c2cnc(C(F)(F)F)s2)C(c2ccccc2)C1 (racemic) [Example 31, N-[4-(4-methyl-2-phenylpiperazine-1-carbonyl)-3-[2-(trifluoromethyl)-1,3-thiazol-5-yl]phenyl]cyclopropanecarboxamide]",> 6.31 µM
5,"Cc1ncc(-c2cc(NC(=O)C3CC3)ccc2C(=O)N2CCN(C)CC2c2ccccc2)s1 (racemic) [Example 32, N-[4-(4-methyl-2-phenylpiperazine-1-carbonyl)-3-(2-methyl-1,3-thiazol-5-yl)phenyl]cyclopropanecarboxamide]",1.26 to 6.31 µM
6,"CN1CCN(C(=O)c2ccc(NC(=O)C3CC3)cc2-c2ccc(C(F)(F)F)s2)C(c2ccccc2)C1 (racemic) [Example 33, N-[4-(4-methyl-2-phenylpiperazine-1-carbonyl)-3-[5-(trifluoromethyl)thiophen-2-yl]phenyl]cyclopropanecarboxamide]",> 6.31 µM
7,"Cc1ccc(-c2cc(NC(=O)C3CC3)ccc2C(=O)N2CCN(C)CC2c2ccccc2)s1 (racemic) [Example 34, N-[4-(4-methyl-2-phenylpiperazine-1-carbonyl)-3-(5-methylthiophen-2-yl)phenyl]cyclopropanecarboxamide]",0.0631 to 0.251 µM
8,"CN1CCN(C(=O)c2ccc(NC(=O)C3CC3)cc2N2CCCC2)C(c2ccccc2C(F)(F)F)C1 (racemic) [Example 106, N-[4-[4-methyl-2-[2-(trifluoromethyl)phenyl]piperazine-1-carbonyl]-3-pyrrolidin-1-ylphenyl]cyclopropanecarboxamide]",0.316 to 1 µM
9,"CN1CCN(C(=O)c2ccc(NC(=O)C3CC3)cc2N2CCCC2)C(c2cccc(C#N)c2)C1 (racemic) [Example 107, N-[4-[2-(3-cyanophenyl)-4-methylpiperazine-1-carbonyl]-3-pyrrolidin-1-ylphenyl]cyclopropanecarboxamide]",0.0631 to 0.251 µM
10,"Cc1ccc(C2CN(C)CCN2C(=O)c2ccc(NC(=O)C3CC3)cc2N2CCCC2)cc1 (racemic) [Example 109, N-[4-[4-methyl-2-(4-methylphenyl)piperazine-1-carbonyl]-3-pyrrolidin-1-ylphenyl]cyclopropanecarboxamide]",0.0631 to 0.251 µM
11,"Cc1cc(Cl)cc(C2CN(C)CCN2C(=O)c2ccc(NC(=O)C3CC3)cc2N2CCCC2)c1 (racemic) [Example 110, N-[4-[2-(3-chloro-5-methylphenyl)-4-methylpiperazine-1-carbonyl]-3-pyrrolidin-1-ylphenyl]cyclopropanecarboxamide]",≤ 0.0501 µM
12,"Cc1cccc(C2CN(C)CCN2C(=O)c2ccc(NC(=O)C3CC3)cc2N2CCCC2)c1 (racemic) [Example 111, N-[4-[4-methyl-2-(3-methylphenyl)piperazine-1-carbonyl]-3-pyrrolidin-1-ylphenyl]cyclopropanecarboxamide]",0.0631 to 0.251 µM
13,"Cc1nnc(-c2ccc(C(=O)N3CCC(F)(F)CC3)c(-c3ccn(C(C)C4CC4)n3)c2)[nH]1 (single isomer, unassigned) [Example 57a, [2-[1-(1R or 1S-cyclopropylethyl)pyrazol-3-yl]-4-(5-methyl-4H-1,2,4-triazol-3-yl)phenyl]-(4,4-difluoro-1-piperidyl)methanone]",≤ 0.0501 µM
14,"O=C(Nc1ccc(C(=O)N2CCCC2c2ccccc2)c(N2CCCC2)c1)C1CC1 (stereo not drawn) [Example 1, N-[4-(2-phenylpyrrolidine-1-carbonyl)-3-pyrrolidin-1-ylphenyl]cyclopropanecarboxamide]",1.26 to 6.31 µM
15,"O=C(Nc1ccc(C(=O)N2CCC(c3ccccc3)C2)c(N2CCCC2)c1)C1CC1 (stereo not drawn) [Example 2, N-[4-(3-phenylpyrrolidine-1-carbonyl)-3-pyrrolidin-1-ylphenyl]cyclopropanecarboxamide]",1.26 to 6.31 µM
16,"O=C(Nc1ccc(C(=O)N2CCC3(COC3)C2)c(N2CCCC2)c1)C1CC1 [Example 3, N-[4-(2-oxa-7-azaspiro[3.4]octane-7-carbonyl)-3-pyrrolidin-1-ylphenyl]cyclopropanecarboxamide]",1.26 to 6.31 µM
17,"CC1CN(C(=O)c2ccc(NC(=O)C3CC3)cc2N2CCCC2)CC(C)S1(=O)=O (stereo not drawn) [Example 5, N-[4-(2,6-dimethyl-1,1-dioxo-1,4-thiazinane-4-carbonyl)-3-pyrrolidin-1-ylphenyl]cyclopropanecarboxamide]",> 6.31 µM
18,"O=C(Nc1ccc(C(=O)N2CC3CCC(C2)O3)c(N2CCCC2)c1)C1CC1 [Example 6, N-[4-(8-oxa-3-azabicyclo[3.2.1]octane-3-carbonyl)-3-pyrrolidin-1-ylphenyl]cyclopropanecarboxamide]",0.316 to 1 µM

# More lines, now with the values ahead:
row,Ki,Structure (SMILES)
1,≤ 0.0501 µM,"Cc1cc(Cl)cc(C2CN(C)CCN2C(=O)c2ccc(NC(=O)C3CC3)cc2N2CCCC2)c1 (single isomer, unassigned) [Example 110a, N-[4-[2S or 2R-(3-chloro-5-methylphenyl)-4-methylpiperazine-1-carbonyl]-3-pyrrolidin-1-ylphenyl]cyclopropanecarboxamide hydrochloride]"
2,1.26 to 6.31 µM,"Cc1cc(Cl)cc(C2CN(C)CCN2C(=O)c2ccc(NC(=O)C3CC3)cc2N2CCCC2)c1 (single isomer, unassigned) [Example 110b, N-[4-[2S or 2R-(3-chloro-5-methylphenyl)-4-methylpiperazine-1-carbonyl]-3-pyrrolidin-1-ylphenyl]cyclopropanecarboxamide hydrochloride]"
3,0.316 to 1 µM,"Cc1nnc(-c2ccc(C(=O)N3CCN(C)CC3c3ccccc3)c(N3CCC(C(C)C)C3)c2)[nH]1 (single isomer, unassigned) [Example 125a, (4-methyl-2-phenylpiperazin-1-yl)-[4-(5-methyl-4H-1,2,4-triazol-3-yl)-2-(3-propan-2-ylpyrrolidin-1-yl)phenyl]methanone]"
4,≤ 0.0501 µM,"Cc1nnc(-c2ccc(C(=O)N3CCN(C)CC3c3ccccc3)c(N3CCC(C(C)C)C3)c2)[nH]1 (single isomer, unassigned) [Example 125b, (4-methyl-2-phenylpiperazin-1-yl)-[4-(5-methyl-4H-1,2,4-triazol-3-yl)-2-(3-propan-2-ylpyrrolidin-1-yl)phenyl]methanone]"
5,0.0631 to 0.251 µM,"Cc1nnc(-c2ccc(C(=O)N3CCN(C)CC3c3ccccc3)c(N3CCC(C(C)C)C3)c2)[nH]1 (single isomer, unassigned) [Example 125c, (4-methyl-2-phenylpiperazin-1-yl)-[4-(5-methyl-4H-1,2,4-triazol-3-yl)-2-(3-propan-2-ylpyrrolidin-1-yl)phenyl]methanone]"
6,≤ 0.0501 µM,"Cc1nnc(-c2ccc(C(=O)N3CCN(C)CC3c3ccccc3)c(N3CCC(C(C)C)C3)c2)[nH]1 (single isomer, unassigned) [Example 125d, (4-methyl-2-phenylpiperazin-1-yl)-[4-(5-methyl-4H-1,2,4-triazol-3-yl)-2-(3-propan-2-ylpyrrolidin-1-yl)phenyl]methanone]"
